Assay results as given in patent publication US20260158021A1, “PREVENTION AND TREATMENT OF ORGAN FIBROSIS” (CORNELL UNIVERSITY, priority 2018, published 2026).

Experiments:
human lung fibroblasts [1] = assay: Collagen secretion by human lung fibroblasts (newly secreted collagen in supernatant, Sircol); format: cell-based; conditions: for collagen secretion: RXD, normalized for total protein
Procedure: (§1) Human lung fibroblasts were exposed to TGF-β (10 ng/ml) or co-cultured with EXO([…]), and supernatants were collected for measurement of newly secreted collagen. […] Cell lysates were used to quantify total protein/well for normalization. Data are means±SEM of three separate experiments (n=3), each point run in triplicate. *P<0.05, ***P<0.001, ***P<0.0001.
(§2) FIG. 19A-19E. […] C. […] Actin was run as the loading control. […] All assays were performed in triplicate.
(FIG. 3A). All values presented are normalized for total protein.

human lung fibroblasts [2] = assay: Fibroblast proliferation by total protein content of fibroblast cell lysates; format: cell-based; conditions: +RXD+TGF-β; control 0.800, +TGF-β 1.138
Procedure: as §1

human lung fibroblasts [3] = assay: Fibroblast migration/accumulation/foci formation in transwell plates; format: cell-based; conditions: qualitative; +TGF-β (10 ng/ml) +RXD (10 mg/ml)
[4] = tested on: smooth muscle actin (SMA); assay: Western blot of smooth muscle actin (SMA) in lung fibroblasts; format: cell-based, human; conditions: Western blotting
c-P4H tetramer = assay: Non-denaturing Western blot of human lung fibroblast homogenates probed for c-P4H α-subunit; format: cell-based; conditions: RXD 10 mg/ml; alone, +EXO, +TGF-β
Procedure: FIG. 4. […] Western blotting on a gradient gel was performed on human lung fibroblast homogenates in non-denaturing conditions and probed with anti-α-subunit monomer (60 kD). Tetramer is found at 240 kD at arrow.

[5] = tested on: mast cells (human mastocytoma cells); assay: Mast cell degranulation after high oxygen and recovery in room air (β-hexosaminadase, tryptase release); format: cell-based; conditions: 72 h; 1 day high oxygen then 2 days room air (HO^rec) +RXD 10 mg/ml
Procedure: FIG. 5A-5C. […] C. […] NS=not significant
Mast cell degranulation was assessed by measuring the release of β-hexosaminadase (β-hex), a classic indicator of mast cell degranulation (FIG. 5A) and Tryptase (FIG. 5B). […] This protocol was designed to mimic the clinical protocol of giving IPF patients hospitalized with acute exacerbations high oxygen then followed by return to room air.

[6] = tested on: bleomycin-induced pulmonary fibrosis; assay: Bleomycin experimental mouse model of pulmonary fibrosis; format: in vivo, mice (C57BL/6J)
Source text: FIG. 11A-11B. In Vivo Murine Model of pulmonary fibrosis. […] Representative micrographs of Masson's trichrome-stained lungs from bleomycin-treated mice from the 14d time point. […] FIG. 12. […] Sal=Saline vehicle. FIG. 20A-20E. […] NS=not significant. N=5 mice/group. Scale bar=250 μm. […] Mice were sacrificed on day 21.

C-P4H = C-P4H abundance in stimulated human fibroblasts (immunofluorescence, Western blot); format: cell-based; conditions: for C-P4H immunofluorescence intensity: human fibroblasts exposed to TGF-β or mast cell exosomes
Procedure: FIG. 9. Roxadustat inhibits the increase in C-[…] in stimulated human fibroblasts. Immunoexpression of prolyl-4-hydroxylase […]). […] FIG. 19A-19E. […] C. […] Actin was run as the loading control. […] All assays were performed in triplicate.

HLF = assay: Proline hydroxylation (LC-MC of extracted proteins) and hydroxyproline content in HLF; format: cell-based, human
Procedure: as §2

UUO kidney = assay: Unilateral ureteral obstruction (UUO) model of renal fibrosis, Masson's trichrome collagen staining; format: in vivo, Mice C57BL/6J
Procedure: All animal treatments and experiments were approved by the Institutional Animal Care and Use Committee of Weill Cornell Medical College. Mice were anesthetized intraperitoneally with a cocktail of ketamine (90 mg/kg) and xylazine (4 mg/kg). Mice C57BL/6J) underwent right unilateral ureteral ligation with 4-0 silk suture through an abdominal midline incision under sterile conditions. Sham-operated control (CON) animals underwent identical operations, however, with manipulation of the right ureter only. Delivery of Roxadustat (10 mg/kg) on days 0, 2, 4, 6, 8, was administered IP. Mice were sacrificed on Day 14.
Kidneys were harvested and fixed in 10% neutral buffered formalin followed by embedding in paraffin. Sections (5 um) were collected and Masson's trichrome staining was performed using a kit (Richard-Allen Scientific) to detect collagen (blue stain). Slides of paraffinized tissue sections were deparaffinized, rehydrated, and washed in distilled water. Sections were subsequently stained using components from the trichrome kit and according to the manufacturer's protocol. After dehydrating and clearing in xylene, the sections were mounted with coverslips in Vectamount (Vector Laboratories). Tissue sections were examined with an inverted epifluorescence microscope (Nikon Eclipse TE 2000-U) interfaced to a SPOT Insight 2 megapixel color camera (Diagnostic Instruments).

Cc1nc(C(=O)NCC(=O)O)c(O)c2ccc(Oc3ccccc3)cc12 [RXD]
secreted collagen (Sircol) (human lung fibroblasts [1]; FIG. 19E, HLF untreated and treated with +MC-EXO and +TGF-β): blocked | collagen secretion (human lung fibroblasts [1]; fibroblasts co-cultured with mast cell exosomes (40 g/ml)): inhibits collagen secretion | collagen secretion (human lung fibroblasts [1]; fibroblasts exposed to exogenous TGF-β1 (10 ng/ml)): inhibits collagen secretion | collagen secretion (human lung fibroblasts [1]; untreated fibroblasts): inhibits collagen secretion | total protein content of fibroblast cell lysates (fibroblast proliferation) (human lung fibroblasts [2]): 0.828 μg/ml/well | fibroblast migration, accumulation, and foci formation (human lung fibroblasts [3]): prevents fibroblast migration, accumulation, and foci formation | SMA abundance [4]: decreased | α-subunit monomer abundance (60 kD band) (c-P4H tetramer): increased the α-subunit monomer abundance in all cases | mast cell degranulation (β-hexosaminadase and mast cell tryptase in supernatants) [5]: decreases mast cell degranulation | severity of fibrosis, Masson's trichrome stained lungs ([6]; RXD 10 mg/kg days 7-19 every other day, sacrifice day 21): lessened the severity of fibrosis | lung hydroxyproline content ([6]; RXD 10 mg/kg days 7-19 every other day, sacrifice day 21, P<0.01 Bleo versus Bleo+RXD): significantly decreased | number of mast cells in vivo in pulmonary fibrosis ([6]; bleo vs bleo+RXD, P<0.05): reduced | lung compliance (pulmonary function tests) ([6]; bleomycin-induced decrease): normalizes the bleomycin-induced decrease in lung compliance | pulmonary fibrosis, Masson's trichrome-stained lungs ([6]; bleomycin-treated mice, 14d time point): reduced | C-P4H abundance in Western blots (C-P4H; HLF lysates +MC-EXO and +TGFβ, actin loading control): decreased C-P4H abundance | C-P4H immunofluorescence intensity (C-P4H): inhibited the increase in C-P4H fluorescence intensity | C-P4H immunofluorescence intensity (C-P4H; listed as Roxadustat): inhibits the increase in C-P4H | proline hydroxylation in collagens 1 and 3 (HLF; LC-MC analysis of HLF extracted proteins): prevented proline hydroxylation | hydroxyproline in HLFs (HLF; TGF-β-induced increase): inhibited the TGF-β-induced increase in hydroxyproline | renal fibrosis, collagen staining of UUO kidney cortex and medulla (UUO kidney; Roxadustat 10 mg/kg IP days 0, 2, 4, 6, 8, Day 14): lessened the fibrosis | quantified collagen (blue) staining, UUO kidney cortex and medulla (UUO kidney; pixel by pixel, P<0.0001 UUO vs UUO+RXD in cortex and in medulla): Reduces Fibrosis | quantified collagen staining, control cortex and medulla with and without RXD (UUO kidney; sham control kidneys): no significant difference
